Data: patent US7569517B2, “4-biphenyl-substituted pyrazolidin-3 5-diones pesticide agent and/or microbicide and/or herbicide” (Bayer CropScience AG, priority 2003, dated 2009)

Columns and labels:
Type in all cases: in vivo
[1] = tested on: green peach aphid (Myzus persicae); assay: Myzus test (spray treatment) (Example B); conditions: sprayed Chinese cabbage discs
Protocol: Myzus Test (Spray Treatment)
(§1) • Solvents: 78 parts by weight of acetone • 1.5 parts by weight of dimethylformamide • Emulsifier: 0.5 part by weight of alkylaryl polyglycol ether
To produce a suitable preparation of active compound, 1 part by weight of active compound is mixed with the stated amounts of solvent and emulsifier, and the concentrate is diluted with emulsifier-containing water to the desired concentration.
Discs of Chinese cabbage (Brassica pekinensis) which are infested by all stages of the green peach aphid (Myzus persicae) are sprayed with a preparation of active compound of the desired concentration.
After the desired period of time, the activity in % is determined. 100% means that all aphids have been killed; 0% means that none of the aphids have been killed.

[2] = tested on: larvae of the mustard beetle (Phaedon cochleariae); assay: Phaedon test (spray treatment) (Example C); conditions: sprayed Chinese cabbage discs
Protocol: Phaedon Test (Spray Treatment)
as §1
(§2) To produce a suitable preparation of active compound, 1 part by weight of active compound is mixed with the stated amounts of solvents and emulsifier, and the concentrate is diluted with emulsifier-containing water to the desired concentration.
After the desired period of time, the activity in % is determined. 100% means that all beetle larvae have been killed; 0% means that none of the beetle larvae have been killed.

[3] = tested on: greenhouse red spider mite (Tetranychus urticae); assay: Tetranychus test (OP-resistance/spray treatment) (Example E); conditions: sprayed bean leaf discs
Protocol: Tetranychus Test (OP-resistance/Spray Treatment)
as §1
To prepare a suitable preparation of active compound, 1 part by weight of active compound is mixed with the stated amounts of solvents and emulsifier, and the concentrate is diluted with emulsifier-containing water to the desired concentration.
Discs of bean leaves (Phaseolus vulgaris) which are infested by all stages of the greenhouse red spider mite (Tetranychus urticae) are sprayed with a preparation of active compound of the desired concentration.
After the desired period of time, the activity in % is determined. 100% means that all spider mites have been killed; 0% means that none of the spider mites have been killed.

[4] = tested on: caterpillars of the army worm (Spodoptera frugiperda); assay: Spodoptera frugiperda test (spray treatment) (Example D); conditions: sprayed maize leaf discs
Protocol: Spodoptera Frugiperda Test (Spray Treatment)
as §1, §2
Discs of maize leaves (Zea mays) are sprayed with a preparation of active compound of the desired concentration and, after they have dried, populated with caterpillars of the army worm (Spodoptera frugiperda).
After the desired period of time, the activity in % is determined. 100% means that all caterpillars have been killed; 0% means that none of the caterpillars have been killed.

Cc1ccc(-c2ccc(F)cc2)cc1C1(Cl)C(=O)N2CCCCN2C1=O [Ex. I-1-1]
Kill rate in % after 5d ([1]; 100 g/ha): 100%
Kill rate in % after 7d ([2]; 100 g/ha): 100%

Cc1ccc(-c2ccccc2)cc1C1(Cl)C(=O)N2CCCCN2C1=O [Ex. I-1-3]
Kill rate in % after 5d ([3]; 500 g/ha): 100%

Cc1ccc(-c2ccc(Cl)cc2)cc1C1(Cl)C(=O)N2CCCCN2C1=O [Ex. I-1-6]
Kill rate in % after 7d ([2]; 500 g/ha): 100%
Kill rate in % after 7d ([4]; 500 g/ha): 100%

Cc1ccc(-c2ccccc2F)cc1C1(Cl)C(=O)N2CCCCN2C1=O [Ex. I-1-7]
Kill rate in % after 5d ([1]; 500 g/ha): 90%
Kill rate in % after 7d ([2]; 500 g/ha): 100%

Cc1ccc(-c2cccc(F)c2)cc1C1(Cl)C(=O)N2CCCCN2C1=O [Ex. I-1-8]
Kill rate in % after 7d ([4]; 500 g/ha): 100%
Kill rate in % after 5d ([3]; 500 g/ha): 100%

Cc1cccc(-c2ccc(C)c(C3(Cl)C(=O)N4CCCCN4C3=O)c2)c1 [Ex. I-1-10]
Kill rate in % after 7d ([2]; 500 g/ha): 100%
Kill rate in % after 5d ([3]; 500 g/ha): 100%

Cc1ccc(-c2ccc(C)c(C3(Cl)C(=O)N4CCCCN4C3=O)c2)cc1 [Ex. I-1-11]
Kill rate in % after 7d ([2]; 500 g/ha): 100%

Cc1ccc(-c2cccc(Cl)c2Cl)cc1C1(Cl)C(=O)N2CCCCN2C1=O [Ex. I-1-12]
Kill rate in % after 5d ([3]; 500 g/ha): 90%

Cc1ccc(-c2ccc(Cl)cc2Cl)cc1C1(Cl)C(=O)N2CCCCN2C1=O [Ex. I-1-13]
Kill rate in % after 5d ([1]; 500 g/ha): 90%
Kill rate in % after 5d ([3]; 500 g/ha): 100%

Cc1ccc(-c2cc(Cl)ccc2Cl)cc1C1(Cl)C(=O)N2CCCCN2C1=O [Ex. I-1-14]
Kill rate in % after 7d ([2]; 500 g/ha): 100%
Kill rate in % after 5d ([3]; 500 g/ha): 100%

Cc1ccc(-c2ccc(Cl)c(Cl)c2)cc1C1(Cl)C(=O)N2CCCCN2C1=O [Ex. I-1-15]
Kill rate in % after 7d ([4]; 500 g/ha): 100%

Cc1ccc(-c2ccc(F)cc2F)cc1C1(Cl)C(=O)N2CCCCN2C1=O [Ex. I-1-17]
Kill rate in % after 5d ([1]; 500 g/ha): 90%
Kill rate in % after 7d ([2]; 500 g/ha): 100%

Cc1ccc(-c2cc(F)ccc2F)cc1C1(Cl)C(=O)N2CCCCN2C1=O [Ex. I-1-18]
Kill rate in % after 7d ([2]; 500 g/ha): 100%

Cc1ccc(-c2ccc(F)c(Cl)c2)cc1C1(Cl)C(=O)N2CCCCN2C1=O [Ex. I-1-19]
Kill rate in % after 7d ([4]; 500 g/ha): 100%

Cc1ccc(-c2ccc(C(F)(F)F)cc2)cc1C1(Cl)C(=O)N2CCCCN2C1=O [Ex. I-1-22]
Kill rate in % after 7d ([4]; 100 g/ha): 100%

Cc1ccc(-c2ccc(OC(F)(F)F)cc2)cc1C1(Cl)C(=O)N2CCCCN2C1=O [Ex. I-1-29]
Kill rate in % after 7d ([2]; 500 g/ha): 100%
Kill rate in % after 5d ([3]; 500 g/ha): 100%

COc1ccc(Cl)cc1-c1ccc(C)c(C2(Cl)C(=O)N3CCCCN3C2=O)c1 [Ex. I-1-34]
Kill rate in % after 5d ([1]; 500 g/ha): 100%

Cc1ccc(-c2ccccc2)cc1C1(Cl)C(=O)N2CCOCCN2C1=O [Ex. I-2-1]
Kill rate in % after 7d ([2]; 500 g/ha): 100%

Cc1ccc(-c2ccccc2Cl)cc1C1(Cl)C(=O)N2CCOCCN2C1=O [Ex. I-2-2]
Kill rate in % after 7d ([4]; 500 g/ha): 100%

Cc1ccc(-c2cccc(Cl)c2)cc1C1(Cl)C(=O)N2CCOCCN2C1=O [Ex. I-2-3]
Kill rate in % after 7d ([4]; 500 g/ha): 100%

Cc1ccc(-c2ccc(Cl)cc2)cc1C1(Cl)C(=O)N2CCOCCN2C1=O [Ex. I-2-4]
Kill rate in % after 7d ([4]; 500 g/ha): 100%

Cc1ccc(-c2ccccc2F)cc1C1(Cl)C(=O)N2CCOCCN2C1=O [Ex. I-2-5]
Kill rate in % after 5d ([3]; 500 g/ha): 90%

Cc1ccc(-c2cccc(F)c2)cc1C1(Cl)C(=O)N2CCOCCN2C1=O [Ex. I-2-6]
Kill rate in % after 5d ([1]; 500 g/ha): 90%
Kill rate in % after 7d ([2]; 500 g/ha): 100%

Cc1ccc(-c2ccc(F)cc2)cc1C1(Cl)C(=O)N2CCOCCN2C1=O [Ex. I-2-7]
Kill rate in % after 7d ([4]; 100 g/ha): 100%
Kill rate in % after 5d ([3]; 100 g/ha): 90%

Cc1cccc(-c2ccc(C)c(C3(Cl)C(=O)N4CCOCCN4C3=O)c2)c1 [Ex. I-2-9]
Kill rate in % after 5d ([3]; 500 g/ha): 90%

Cc1ccc(-c2ccc(C)c(C3(Cl)C(=O)N4CCOCCN4C3=O)c2)cc1 [Ex. I-2-10]
Kill rate in % after 7d ([2]; 500 g/ha): 100%

Cc1ccc(-c2ccc(Cl)cc2Cl)cc1C1(Cl)C(=O)N2CCOCCN2C1=O [Ex. I-2-12]
Kill rate in % after 7d ([2]; 500 g/ha): 100%

Cc1ccc(-c2cc(Cl)ccc2Cl)cc1C1(Cl)C(=O)N2CCOCCN2C1=O [Ex. I-2-13]
Kill rate in % after 7d ([4]; 500 g/ha): 100%

Cc1ccc(-c2ccc(Cl)c(Cl)c2)cc1C1(Cl)C(=O)N2CCOCCN2C1=O [Ex. I-2-14]
Kill rate in % after 7d ([2]; 500 g/ha): 100%

Cc1ccc(-c2cc(Cl)cc(Cl)c2)cc1C1(Cl)C(=O)N2CCOCCN2C1=O [Ex. I-2-15]
Kill rate in % after 7d ([2]; 500 g/ha): 100%

Cc1ccc(-c2ccc(F)cc2F)cc1C1(Cl)C(=O)N2CCOCCN2C1=O [Ex. I-2-16]
Kill rate in % after 5d ([1]; 500 g/ha): 100%
Kill rate in % after 7d ([4]; 500 g/ha): 100%

Cc1ccc(-c2cc(F)ccc2F)cc1C1(Cl)C(=O)N2CCOCCN2C1=O [Ex. I-2-17]
Kill rate in % after 7d ([2]; 500 g/ha): 100%

Cc1ccc(-c2ccc(F)c(Cl)c2)cc1C1(Cl)C(=O)N2CCOCCN2C1=O [Ex. I-2-18]
Kill rate in % after 5d ([1]; 500 g/ha): 90%
Kill rate in % after 7d ([4]; 500 g/ha): 100%

Cc1ccc(-c2ccccc2C(F)(F)F)cc1C1(Cl)C(=O)N2CCOCCN2C1=O [Ex. I-2-19]
Kill rate in % after 5d ([3]; 500 g/ha): 90%

Cc1ccc(-c2cccc(C(F)(F)F)c2)cc1C1(Cl)C(=O)N2CCOCCN2C1=O [Ex. I-2-20]
Kill rate in % after 7d ([2]; 500 g/ha): 100%

Cc1ccc(-c2ccc(C(F)(F)F)cc2)cc1C1(Cl)C(=O)N2CCOCCN2C1=O [Ex. I-2-21]
Kill rate in % after 7d ([4]; 500 g/ha): 100%

COc1ccccc1-c1ccc(C)c(C2(Cl)C(=O)N3CCOCCN3C2=O)c1 [Ex. I-2-22]
Kill rate in % after 5d ([3]; 100 g/ha): 90%

COc1ccc(Cl)c(-c2ccc(C)c(C3(Cl)C(=O)N4CCOCCN4C3=O)c2)c1 [Ex. I-2-23]
Kill rate in % after 5d ([1]; 500 g/ha): 100%

Cc1ccc(-c2cccc([N+](=O)[O-])c2)cc1C1(Cl)C(=O)N2CCOCCN2C1=O [Ex. I-2-27]
Kill rate in % after 7d ([2]; 500 g/ha): 100%
Kill rate in % after 5d ([3]; 100 g/ha): 100%

Cc1ccc(-c2ccc(OC(F)(F)F)cc2)cc1C1(Cl)C(=O)N2CCOCCN2C1=O [Ex. I-2-28]
Kill rate in % after 5d ([3]; 500 g/ha): 90%

Cc1ccc(-c2ccc(Oc3ccccc3)cc2)cc1C1(Cl)C(=O)N2CCOCCN2C1=O [Ex. I-2-29]
Kill rate in % after 5d ([1]; 500 g/ha): 100%

Cc1ccc(-c2ccc(Oc3ccc(Cl)cc3)cc2)cc1C1(Cl)C(=O)N2CCOCCN2C1=O [Ex. I-2-34]
Kill rate in % after 7d ([2]; 500 g/ha): 100%

COc1ccc(-c2ccc(C)c(C3(Cl)C(=O)N4CCOCCN4C3=O)c2)cc1Cl [Ex. I-2-35]
Kill rate in % after 5d ([1]; 500 g/ha): 100%
